For 1 molecule, IC50 results are on record in patent US20260217661A1, “TREATMENTS FOR PAIN” (Sevenless Therapeutics Limited, priority 2023, published 2026).

The assay has as its target T1, KRAS WT/SOS1 (Homo sapiens, UniProt Q07889).
T1 sequence (Q07889 1-1333): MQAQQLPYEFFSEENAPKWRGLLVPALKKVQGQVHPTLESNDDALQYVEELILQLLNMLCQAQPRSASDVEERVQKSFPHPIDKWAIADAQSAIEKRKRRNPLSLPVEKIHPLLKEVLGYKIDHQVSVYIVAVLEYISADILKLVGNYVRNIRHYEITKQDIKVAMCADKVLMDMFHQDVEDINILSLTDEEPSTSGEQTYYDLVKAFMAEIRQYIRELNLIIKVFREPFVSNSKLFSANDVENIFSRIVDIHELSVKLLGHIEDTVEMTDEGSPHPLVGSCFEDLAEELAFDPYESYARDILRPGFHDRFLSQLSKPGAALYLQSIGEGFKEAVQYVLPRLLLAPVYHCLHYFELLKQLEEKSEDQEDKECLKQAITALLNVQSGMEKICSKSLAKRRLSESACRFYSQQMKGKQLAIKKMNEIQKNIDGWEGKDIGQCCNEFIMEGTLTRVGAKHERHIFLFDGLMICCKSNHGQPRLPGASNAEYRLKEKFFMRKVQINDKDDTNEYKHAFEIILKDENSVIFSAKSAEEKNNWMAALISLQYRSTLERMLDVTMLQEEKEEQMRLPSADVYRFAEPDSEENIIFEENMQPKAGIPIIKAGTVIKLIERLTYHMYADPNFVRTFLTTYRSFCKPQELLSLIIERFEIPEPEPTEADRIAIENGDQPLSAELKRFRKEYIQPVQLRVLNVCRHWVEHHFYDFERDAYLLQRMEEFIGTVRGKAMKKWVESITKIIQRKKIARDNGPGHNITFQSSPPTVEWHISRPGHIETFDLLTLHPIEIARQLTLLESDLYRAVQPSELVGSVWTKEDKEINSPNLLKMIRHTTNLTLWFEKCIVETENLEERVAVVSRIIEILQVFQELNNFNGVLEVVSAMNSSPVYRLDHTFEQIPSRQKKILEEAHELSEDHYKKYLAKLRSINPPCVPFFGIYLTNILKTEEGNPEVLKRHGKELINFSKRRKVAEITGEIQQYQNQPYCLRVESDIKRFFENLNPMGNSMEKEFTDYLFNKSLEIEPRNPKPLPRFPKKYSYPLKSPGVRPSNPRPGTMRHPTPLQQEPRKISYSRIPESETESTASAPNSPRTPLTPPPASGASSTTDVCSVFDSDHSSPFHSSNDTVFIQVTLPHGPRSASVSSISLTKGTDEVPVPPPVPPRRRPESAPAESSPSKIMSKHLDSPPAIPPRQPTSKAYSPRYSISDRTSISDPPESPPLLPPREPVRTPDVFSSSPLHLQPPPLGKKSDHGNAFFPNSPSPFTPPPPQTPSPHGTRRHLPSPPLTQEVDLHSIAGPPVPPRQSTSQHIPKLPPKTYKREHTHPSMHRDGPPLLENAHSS
The assay can be described thus: HTRF KRAS WT/SOS1 PPI kit (Cisbio) screen for SOS1 inhibitors. The class given is binding. The note with it: HTRF KRAS WT/SOS1 PPI assay, 10-point dilution series starting at 10 μM, 60 minutes incubation. As to the method:
Compounds were screened using an HTRF KRAS WT/SOS1 PPI kit provided by Cis bio, according to the manufacturer's instructions, with the modifications described below. All reagents were allowed to equilibrate to room temperature and diluted to working stock in Binding Domain Detection buffer (BDD buffer). Stock solutions were prepared by adding 1 part Tag1-KRAS WT/GTP to 1 part Tag2-SOS1 and 1 part BDD. Separately, 1 part Anti-Tag1 XL665 antibody premix was added to Anti-Tag2 Tb cryptate antibody premix. BI-3406 (Selleck Chemicals) was used as a standard, solubilised to 10 mM in DMSO. Test compounds were also solubilised to 10 mM in DMSO. […] Per well, 6 uL of Tag1-KRAS WT/GTP premix, 4 ul Tag2-SOS1 premix and 10 μl of Anti-Tag1 XL665 and Anti-Tag2 Tb cryptate antibodies were then added using a E1-ClipTip™ Electronic Adjustable Multichannel Equalizer Pipette. After the final addition, the plate was covered and placed in the benchtop incubator set at 22° C. The reaction was incubated for 60 minutes at room temperature, prior to reading using a Pherastar FSX plate reader.

Take `COc1cc2nncc(N[C@H](C)c3cccc(C(F)F)c3F)c2cc1N1CC2CC(C1)O2` [Example-8, 6-(6-oxa-3-azabicyclo [3.1.1]heptan-3-yl)-N—((R)-1-(3-(difluoromethyl)-2-fluorophenyl)ethyl)-7-methoxycinnolin-4-amine]: the half-inhibitory concentration (IC50) was less than 0.1 µM.
